The values that follow come from article PMC6386362, “Mechanism and resistance for antimycobacterial activity of a fluoroquinophenoxazine compound” (PLoS ONE, 2019).

The target of this experiment is T1, Mtb topoisomerase I (MtbTopI) (Mycobacterium tuberculosis, UniProt P9WG49).
T1 construct: gene topA
The format is biochemical.

T1 sequence (P9WG49 whole entry): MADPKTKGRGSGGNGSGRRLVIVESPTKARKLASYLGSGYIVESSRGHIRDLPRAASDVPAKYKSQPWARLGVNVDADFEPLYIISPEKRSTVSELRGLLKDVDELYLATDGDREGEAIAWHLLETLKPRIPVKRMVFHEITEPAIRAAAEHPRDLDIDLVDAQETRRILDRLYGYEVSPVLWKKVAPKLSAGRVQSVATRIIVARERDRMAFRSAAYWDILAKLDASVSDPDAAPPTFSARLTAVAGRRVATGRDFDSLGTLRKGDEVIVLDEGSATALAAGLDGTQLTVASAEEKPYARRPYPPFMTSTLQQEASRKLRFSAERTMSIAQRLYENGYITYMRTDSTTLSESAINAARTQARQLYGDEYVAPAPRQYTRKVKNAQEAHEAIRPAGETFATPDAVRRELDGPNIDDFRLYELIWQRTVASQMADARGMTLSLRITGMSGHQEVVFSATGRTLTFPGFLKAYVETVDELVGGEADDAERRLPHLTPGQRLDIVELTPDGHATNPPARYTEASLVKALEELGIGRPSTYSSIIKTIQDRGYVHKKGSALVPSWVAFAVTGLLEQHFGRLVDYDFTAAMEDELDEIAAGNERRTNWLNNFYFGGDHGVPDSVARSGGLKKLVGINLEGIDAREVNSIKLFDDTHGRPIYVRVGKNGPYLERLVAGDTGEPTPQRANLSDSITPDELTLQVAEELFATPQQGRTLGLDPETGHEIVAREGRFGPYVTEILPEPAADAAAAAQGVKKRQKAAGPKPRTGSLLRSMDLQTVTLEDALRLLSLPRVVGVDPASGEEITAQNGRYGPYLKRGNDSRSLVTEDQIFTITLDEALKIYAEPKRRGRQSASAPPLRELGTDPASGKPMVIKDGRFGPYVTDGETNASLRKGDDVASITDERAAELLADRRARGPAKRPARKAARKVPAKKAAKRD

`Nc1ccc2c(c1)Oc1c(N3CCC(N4CCCCC4)CC3)c(F)cc3c(=O)c(C(=O)O)cn-2c13` [FP-11g] showed an IC50 of 240 ± 40 nM.
